Paper PMC10180065, “Mechanistic Studies of Arene–Ruthenium(II) Complexes with Carbothioamidopyrazoles as Alternative Cancer Drugs” (Molecules, 2023)
Where two headings read alike, the source gives them in different places.

Columns and labels:
HCC38 = assay: MTT cytotoxicity, HCC38; format: cell-based, human; settings: 48 h incubation, read-out: Cytotoxic effect, IC50
Method: (§1) Cytotoxicity was evaluated against fifteen adherent human cancer cell lines using the MTT test: colorectal adenocarcinoma cells Caco2 (ATCC® HTB-37™), colorectal adenocarcinoma cells HT29 (ATCC® HTB-38™), colon colorectal carcinoma HCT116 (ATCC® CCL-247™), colon adenocarcinoma COLO205 (ATCC® CCL-222™), colorectal adenocarcinoma SW620 (ATCC® CCL-227™), colorectal adenocarcinoma grade IV LoVo (ATCC® CCL-229™), hepatocellular carcinoma Hep 3b (ATCC® HB-8064™), endometrium adenocarcinoma HEC1A (ATCC® HTB-112™), Ishikawa (99040201; Sigma–Aldrich Sigma, St. Louis, MO, USA), cervical adenocarcinoma cells HeLa (ATCC® CCL-2™), lung epithelial carcinoma A549 (ATCC® CRM-CCL-185™), breast epithelial adenocarcinoma cell positive for estrogen and progesterone receptors MCF7 (ATCC® HTB-22™) and negative for expression of estrogen receptor HCC38 (ATCC® CRL-2314™), acute promyelocytic leukemia HL-60 (ATCC® CCL-240™), skin melanoma WM115 (ATCC® CRL-1676™), and 1 suspension cancer cell line: acute lymphoblastic leukemia NALM6 (purchased from the German Collection of Microorganisms and Cell Cultures). HT29, NALM6, HCC-38 and HL-60 cells were cultured in RPMI 1640 medium (Thermo Fisher Scientific, Waltham, MA, USA) supplemented with 10% fetal bovine serum and antibiotic (gentamicin 25 μg ml^−1) (Gibco, Grand Island, New York, NY, USA). For the remaining tumor cell lines, Dulbecco’s minimal essential medium (DMEM, Lonza, Visp, Switzerland) supplemented with 10% fetal bovine serum and antibiotic instead of RPMI 1640 was used. In addition, Human Microvascular Endothelial Cells (HMEC1), which were obtained from the American Type Culture Collection (Manassas, VA, USA), were used as a model of normal cells. HMEC-1 were cultured in MCDB131 medium (Corning Life Sciences, Corning, NY, USA), supplemented with 10% fetal bovine serum, 10 ng/mL Epidermal Growth Factor (Millipore, Burlington, MA, USA) and 10 mM glutamine (Corning Life Sciences). All cells were grown at 37 °C in humidified atmosphere of 5% CO2 in air. The exponential growth of cells was maintained by regular passaging at 90% confluence three times a week using 0.025% trypsin/EDTA (Gibco, Grand Island, New York, NY, USA).
(§2) The cytotoxicity was tested by a standard MTT [3-(4,5-dimethylthiazol-2-yl)-2,5-diphenyltetrazolium bromide] (Sigma, St. Louis, MO, USA) microplate cell viability assay. The anticancer activity of the investigated compounds was evaluated in vitro on the basis of their ability to inhibit the proliferation of various cancer cells. Exponentially growing cells were seeded a day before the experiment into a 96-well microplate (Nunc, Roskilde, Denmark) at a density up to 6–8 × 10^3 cells/mL (depending on the cell line) and exposed to the test compounds at a wide range of concentrations for 48 h. Subsequently, various concentrations of the studied compounds (10^−7–10^−5 M) freshly prepared in DMSO (final concentration of <0.1% DMSO) and diluted with complete culture medium were added. After 48 h incubation, the cells were immediately subjected to a cell viability assay. At this time point, the number of viable cells in each well was estimated by the MTT test. Briefly, 50 µL (5 mg/mL final concentration) of MTT was added to each microplate well. This procedure was then followed by a three- to four-hour incubation at 37 °C. After incubation, MTT solution was replaced with 100 µL DMSO/well, which solubilized the formazan crystals formed by the dehydrogenases of metabolically active cells. Purple formazan absorbance was measured spectrophotometrically at 570 nm.

HT29 = assay: MTT cytotoxicity, HT29; format: cell-based, human; settings: read-out: Cytotoxic effect, IC50
Method: as §1, §2

LoVo = assay: MTT cytotoxicity, LoVo; format: cell-based, human; settings: 48 h incubation, read-out: Cytotoxic effect, IC50
Method: as §1, §2

Caco2 = assay: MTT cytotoxicity, Caco2; format: cell-based, human; settings: read-out: Cytotoxic effect, IC50
Method: as §1, §2

NALM6 = assay: MTT cytotoxicity, NALM6; format: cell-based, human; settings: read-out: Cytotoxic effect, IC50
Method: as §1, §2

WM115 = assay: MTT cytotoxicity, WM115; format: cell-based, human; settings: read-out: Cytotoxic effect, IC50
Method: as §1, §2

Colo205 = assay: MTT cytotoxicity, Colo205; format: cell-based, human; settings: read-out: Cytotoxic effect, IC50
Method: as §1, §2

MCF7 = assay: MTT cytotoxicity, MCF7; format: cell-based, human; settings: 48 h incubation, read-out: Cytotoxic effect, IC50
Method: as §1, §2

A549 = assay: MTT cytotoxicity, A549; format: cell-based, human; settings: 48 h incubation, read-out: Cytotoxic effect, IC50
Method: as §1, §2

HEC1A = assay: MTT cytotoxicity, HEC1A; format: cell-based, human; settings: 48 h incubation, read-out: Cytotoxic effect, IC50
Method: as §1, §2

Ishikawa = assay: MTT cytotoxicity, Ishikawa; format: cell-based, human; settings: 48 h incubation, read-out: Cytotoxic effect, IC50
Method: as §1, §2

SW620 = assay: MTT cytotoxicity, SW620; format: cell-based, human; settings: read-out: Cytotoxic effect, IC50
Method: as §1, §2

HL60 = assay: MTT cytotoxicity, HL60; format: cell-based, human; settings: read-out: Cytotoxic effect, IC50
Method: as §1, §2

Hep 3b = assay: MTT cytotoxicity, Hep 3b; format: cell-based, human; settings: 48 h incubation, read-out: Cytotoxic effect, IC50
Method: as §1, §2

Hela = assay: MTT cytotoxicity, Hela; format: cell-based, human; settings: 48 h incubation, read-out: Cytotoxic effect, IC50
Method: as §1, §2

Lipophilicity by RP-TLC = format: physicochemical; parameters: key: RM = log(1/Rf − 1), Rf = a/b; settings: eluent AcCN: H2O at 30–70% v/v, 22 °C
Method: All the experimental solutions of standard substances (0.1 mg/mL) were prepared by dissolving ligands (1a–1d) or ruthenium complexes (2a/3a–2d/3d) in ethanol. Commercially-available octadecyl-modified silica aluminum sheets (20 × 20 cm) were cut into 5 × 10 cm plates. The plates were manually spotted with 1.0 μL of freshly prepared solutions using automatic pipets, 5 mm from each edge. The chromatograms for all compounds (1a/2a/3a–1d/2d/3d) were developed using a horizontal developing chamber and the solvent migration distance was about 4.5 cm. The plates were visually inspected under UV light at 254 nm. Each zone was clearly marked and its distance was manually measured. The RP-TLC analyses of lipophilicity were performed at ambient temperature (22 °C). In this experiment, all measurements were performed in triplicate and the obtained results were used in further calculations. The acetonitrile and water mixtures for ligands 1a–1d and arene–ruthenium(II) complexes 2a/3a–2d/3d were used as mobile phases, with […] content increasing in the range of 30–70% v/v, at 5% intervals. Values of the chromatographic retention coefficient Rf (as shown Formula (1)) and RM (as shown Formula (2)), based on received chromatograms, were calculated and converted as follows:(1) Rf=a/b (2) RM=log1/Rf−1

[1] = Homo sapiens, HT-29, 48 h incubation
[2] = Homo sapiens, Caco-2, 48 h incubation
[3] = Homo sapiens, NALM-6, 48 h incubation
[4] = Homo sapiens, WM-115, 48 h incubation
[5] = Homo sapiens, COLO 205, 48 h incubation
[6] = Homo sapiens, SW-620, 48 h incubation
[7] = Homo sapiens, HL-60, 48 h incubation

CCc1cc(CC)n(C(N)=S)n1 [1b]
IC50 (HCC38; Homo sapiens): > 200 µM | IC50 (HT29; [1]): > 200 µM | IC50 (LoVo; Homo sapiens): > 200 µM | IC50 (Caco2; [2]): > 200 µM | IC50 (NALM6; [3]): > 200 µM | IC50 (WM115; [4]): > 200 µM | IC50 (Colo205; [5]): > 200 µM | IC50 (MCF7; Homo sapiens): > 200 µM | IC50 (A549; Homo sapiens): > 200 µM | IC50 (HEC1A; Homo sapiens, HEC-1-A): 114 ± 11.3 µM | IC50 (Ishikawa; Homo sapiens): 100 ± 4.6 µM | IC50 (SW620; [6]): > 200 µM | IC50 (HL60; [7]): > 200 µM | IC50 (Hep 3b; Homo sapiens, Hep3B): > 200 µM | IC50 (Hela; Homo sapiens): > 200 µM | Lipophilicity, RM (Lipophilicity by RP-TLC): 2.51

NC(=S)n1nc(-c2ccccc2)cc1O [1c]
IC50 (HCC38; Homo sapiens): > 200 µM | IC50 (HT29; [1]): > 200 µM | IC50 (LoVo; Homo sapiens): > 200 µM | IC50 (Caco2; [2]): > 200 µM | IC50 (NALM6; [3]): 152 ± 26.7 µM | IC50 (WM115; [4]): > 200 µM | IC50 (Colo205; [5]): > 200 µM | IC50 (MCF7; Homo sapiens): > 200 µM | IC50 (A549; Homo sapiens): > 200 µM | IC50 (HEC1A; Homo sapiens, HEC-1-A): 110 ± 8.9 µM | IC50 (Ishikawa; Homo sapiens): 94 ± 2.4 µM | IC50 (SW620; [6]): > 200 µM | IC50 (HL60; [7]): > 200 µM | IC50 (Hep 3b; Homo sapiens, Hep3B): > 200 µM | IC50 (Hela; Homo sapiens): > 200 µM | Lipophilicity, RM (Lipophilicity by RP-TLC): 2.04

Cc1ccc(C(C)C)cc1.Cc1ccc(C(C)C)cc1.[Cl][Ru][Cl].[Cl][Ru][Cl] [compound 4, dichloro(p-cymene)ruthenium(II), reference compound]
IC50 (HCC38): > 200 µM | IC50 (HT29; 48 h incubation): > 200 µM | IC50 (LoVo): 168 ± 7 µM | IC50 (Caco2; 48 h incubation): > 200 µM | IC50 (NALM6; 48 h incubation): > 200 µM | IC50 (WM115; 48 h incubation): > 200 µM | IC50 (Colo205; 48 h incubation): > 200 µM | IC50 (MCF7): > 200 µM | IC50 (A549): > 200 µM | IC50 (HEC1A): 108 ± 3.4 µM | IC50 (Ishikawa): 120 ± 7.2 µM | IC50 (SW620; 48 h incubation): > 200 µM | IC50 (HL60; 48 h incubation): > 200 µM | IC50 (Hep 3b): 167 ± 6.8 µM | IC50 (Hela): > 200 µM

Cc1cc(C)n(C(N)=S)n1 [1a]
IC50 (HCC38; Homo sapiens): > 200 µM | IC50 (HT29; [1]): > 200 µM | IC50 (LoVo; Homo sapiens): > 200 µM | IC50 (Caco2; [2]): > 200 µM | IC50 (NALM6; [3]): > 200 µM | IC50 (WM115; [4]): > 200 µM | IC50 (Colo205; [5]): > 200 µM | IC50 (MCF7; Homo sapiens): > 200 µM | IC50 (A549; Homo sapiens): > 200 µM | IC50 (HEC1A; Homo sapiens, HEC-1-A): 111 ± 9.6 µM | IC50 (Ishikawa; Homo sapiens): 124 ± 4.8 µM | IC50 (SW620; [6]): > 200 µM | IC50 (HL60; [7]): > 200 µM | IC50 (Hep 3b; Homo sapiens, Hep3B): > 200 µM | IC50 (Hela; Homo sapiens): > 200 µM | Lipophilicity, RM (Lipophilicity by RP-TLC): 2.32
